From patent publication US20130211249A1, “DRUG ELUTING HYDROGELS FOR CATHETER DELIVERY” (The Johns Hopkins University, priority 2010, published 2013)

Experiments:
[1] = doxorubicin release from glucomannan alginate blends (dialysis, absorbance at 485 nm); type: physicochemical; conditions: from sulfonated glucomannan calcium alginate blend; Hepes Buffered Saline with 30% FBS, 37° C., pH 7.4; n=10
[2] = dissolution of self-gelling alginate gel by alginate lyase; type: biochemical; conditions: 0.5 mL of alginate lyase added to 5 mL gel (1.5% calcium alginate, 1% sodium alginate) after 1 hour gelling
Text: In embodiments, a self-gelling alginate can be modified to contain an optical agent to assess localization. For example, the FDA approved optical agent inodcyanine green has used at a concentration of 0.005% to assess localization after injection with infrared. Gels can be made by mixing a solution of sodium alginate (Protanal SF 120) and a calcium alginate dispersion (Protaweld TX 120). The amount of calcium alginate can be 1.5%, and the amount of sodium alginate can be 1%. The solution and dispersion are mixed and 5 mL of the gel injected into a 50 mL conical tube. The sample was left to gel for 1 hour.

| doxorubicin release profile [1] | dissolution of hardened alginate gel [2] | Molecule |
| --- | --- | --- |
| eight | – | COc1cccc2c1C(=O)c1c(O)c3c(c(O)c1C2=O)C[C@@](O)(C(=O)CO)C[C@@H]3O[C@H]1C[C@H](N)[C@H](O)[C@H](C)O1 [doxorubicin] |
| – | complete dissolution | alginate lyase: enzymes that catalyze the degradation of alginate (protein, listed as Pseudomonas aeruginosa) MKTSHLIRIALPGALAAALLASQVSQAADLVPPPGYYAAVGERKGSAGSCPAVPPPYTGSLVFTSKYEGSDSARATLNVKAEKTFRSQIKDITDMERGATKLVTQYMRSGRDGDLACALNWMSAWARAGALQSDDFNHTGKSMRKWALGSLSGAYMRLKFSSSRPLAAHAEQSREIEDWFARLGTQVVRDWSGLPLKKINNHSYWAAWSVMSTAVVTNRRDLFDWAVSEFKVAANQVDEQGFLPNELKRRQRALAYHNYALPPLAMIAPFAQVNGVDLRQENHGALQRLAERVMKGVDDEETFEEKTGEDQDMTDLKVDNKYAWLEPYCALYRCEPNACSRPKKDREPFNSFRLGGEVTRVFSREGGS |
